Assay results published in patent US10167262B2, “Herbicidal substituted 3-arylpyrazoles” (FMC CORPORATION, priority 2014, dated 2019).

What was measured:
Format in all cases: in vivo
[1] = tested on: bermudagrass (Cynodon dactylon); assay: Test C postemergence greenhouse test, plant response rating 0-100; details: for Plant response rating, Bermudagrass: 250 g ai/ha, scale 0 to 100
Outline: (§1)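 Postemergence spray of formulated test chemicals on plants 2 to 18 cm tall (1- to 4-leaf stage) grown in peat/vermiculite medium. Greenhouse hold 13 to 15 days, then visual comparison with untreated controls on a 0-100 scale (0 no effect, 100 complete control); dash means no test result.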

[2] = tested on: canarygrass (Phalaris minor); assay: as above; details: for Plant response rating, Canarygrass: 250 g ai/ha, scale 0 to 100
Outline: as §1

[3] = tested on: cocklebur (common cocklebur, Xanthium strumarium); assay: as above; details: for Plant response rating, Cocklebur: 250 g ai/ha, scale 0 to 100
Outline: as §1

[4] = tested on: deadnettle (henbit deadnettle, Lamium amplexicaule); assay: as above; details: for Plant response rating, Deadnettle: 250 g ai/ha, scale 0 to 100
Outline: as §1

[5] = tested on: downy bromegrass (Bromus tectorum); assay: as above; details: for Plant response rating, Bromegrass, Downy: 250 g ai/ha, scale 0 to 100
Outline: as §1

[6] = tested on: goosegrass (Eleusine indica); assay: as above; details: for Plant response rating, Goosegrass: 250 g ai/ha, scale 0 to 100
Outline: as §1

[7] = tested on: green foxtail (Setaria viridis); assay: as above; details: for Plant response rating, Foxtail, Green: 250 g ai/ha, scale 0 to 100
Outline: as §1

[8] = tested on: surinam grass (Brachiaria decumbens); assay: as above; details: for Plant response rating, Surinam Grass: 250 g ai/ha, scale 0 to 100
Outline: as §1

[9] = tested on: windgrass (Apera spica-venti); assay: as above; details: for Plant response rating, Windgrass: 250 g ai/ha, scale 0 to 100
Outline: as §1

[10] = tested on: winter barley (Hordeum vulgare); assay: as above; details: for Plant response rating, Barley: 250 g ai/ha, scale 0 to 100
Outline: as §1

[11] = tested on: woolly cupgrass (Eriochloa villosa); assay: as above; details: for Plant response rating, Cupgrass, Woolly: 250 g ai/ha, scale 0 to 100
Outline: as §1

[12] = tested on: waterhemp_RES2, (ALS & HPPD resistant common waterhemp, Amaranthus rudis); assay: Test E postemergence greenhouse test, plant response rating 0-100; details: scale 0 to 100
Experimental: At the same time, plants from these crop and weed species and also waterhemp_RES1, (ALS & Triazine resistant common waterhemp, Amaranthus rudis), and waterhemp_RES2, (ALS & HPPD resistant common waterhemp, Amaranthus rudis) were planted in pots containing Redi-Earth® planting medium (Scotts Company, 14111 Scottslawn Road, Marysville, Ohio 43041) comprising spaghnum peat moss, vermiculite, wetting agent and starter nutrients were treated with postemergence applications of test chemicals formulated in the same manner. Plants ranged in height from 2 to 18 cm for postemergence treatments (1- to 4-leaf stage).
Treated plants and controls were maintained in a greenhouse for 14 to 21 days, after which time all species were compared to controls and visually evaluated. Plant response ratings, summarized in Table E, are based on a scale of 0 to 100 where 0 is no effect and 100 is complete control. A dash (-) response means no test result.

ON=C(c1ccccc1)c1c[nH]nc1-c1cc(Cl)cc(Cl)c1 [Compound 50]
Plant response rating (0 to 100), Bermudagrass ([1]; 31 g ai/ha): 0
Plant response rating (0 to 100), Bermudagrass ([1]; 62 g ai/ha): 0
Plant response rating (0 to 100), Bermudagrass ([1]; 125 g ai/ha): 0
Plant response rating, Bermudagrass [1]: 0
Plant response rating (0 to 100), Canarygrass ([2]; 31 g ai/ha): 0
Plant response rating (0 to 100), Canarygrass ([2]; 62 g ai/ha): 0
Plant response rating (0 to 100), Canarygrass ([2]; 125 g ai/ha): 0
Plant response rating, Canarygrass [2]: 0
Plant response rating (0 to 100), Cocklebur ([3]; 31 g ai/ha): 5
Plant response rating (0 to 100), Cocklebur ([3]; 62 g ai/ha): 15
Plant response rating (0 to 100), Cocklebur ([3]; 125 g ai/ha): 55
Plant response rating, Cocklebur [3]: 90
Plant response rating (0 to 100), Deadnettle ([4]; 31 g ai/ha): 0
Plant response rating (0 to 100), Deadnettle ([4]; 62 g ai/ha): 0
Plant response rating (0 to 100), Deadnettle ([4]; 125 g ai/ha): 0
Plant response rating, Deadnettle [4]: 40
Plant response rating (0 to 100), Bromegrass, Downy ([5]; 31 g ai/ha): 0
Plant response rating (0 to 100), Bromegrass, Downy ([5]; 62 g ai/ha): 0
Plant response rating (0 to 100), Bromegrass, Downy ([5]; 125 g ai/ha): 0
Plant response rating, Bromegrass, Downy [5]: 0
Plant response rating (0 to 100), Goosegrass ([6]; 31 g ai/ha): 0
Plant response rating (0 to 100), Goosegrass ([6]; 62 g ai/ha): 0
Plant response rating (0 to 100), Goosegrass ([6]; 125 g ai/ha): 0
Plant response rating, Goosegrass [6]: 0
Plant response rating (0 to 100), Foxtail, Green ([7]; 31 g ai/ha): 0
Plant response rating (0 to 100), Foxtail, Green ([7]; 62 g ai/ha): 0
Plant response rating (0 to 100), Foxtail, Green ([7]; 125 g ai/ha): 0
Plant response rating, Foxtail, Green [7]: 0
Plant response rating (0 to 100), Surinam Grass ([8]; 62 g ai/ha): 0
Plant response rating (0 to 100), Surinam Grass ([8]; 125 g ai/ha): 0
Plant response rating, Surinam Grass [8]: 0
Plant response rating (0 to 100), Windgrass ([9]; 62 g ai/ha): 0
Plant response rating (0 to 100), Windgrass ([9]; 125 g ai/ha): 0
Plant response rating, Windgrass [9]: 0
Plant response rating (0 to 100), Barley ([10]; 31 g ai/ha): 0
Plant response rating (0 to 100), Barley ([10]; 62 g ai/ha): 0
Plant response rating (0 to 100), Barley ([10]; 125 g ai/ha): 0
Plant response rating, Barley [10]: 0
Plant response rating (0 to 100), Cupgrass, Woolly ([11]; 31 g ai/ha): 0
Plant response rating (0 to 100), Cupgrass, Woolly ([11]; 62 g ai/ha): 0
Plant response rating (0 to 100), Cupgrass, Woolly ([11]; 125 g ai/ha): 0
Plant response rating, Cupgrass, Woolly [11]: 0
Plant response rating, Waterhemp_RES2 ([12]; 31 g ai/ha): 75
Plant response rating, Waterhemp_RES2 ([12]; 125 g ai/ha): 100
Plant response rating, Waterhemp_RES2 ([12]; 250 g ai/ha): 100
Plant response rating, Waterhemp_RES2 ([12]; 500 g ai/ha): 100

C=CCn1cc(C(=O)c2ccccc2)c(-c2cc(Cl)cc(Cl)c2)n1 [Compound 60]
Plant response rating (0 to 100), Bermudagrass ([1]; 31 g ai/ha): 0
Plant response rating (0 to 100), Bermudagrass ([1]; 62 g ai/ha): 5
Plant response rating (0 to 100), Bermudagrass ([1]; 125 g ai/ha): 5
Plant response rating, Bermudagrass [1]: 5
Plant response rating (0 to 100), Canarygrass ([2]; 31 g ai/ha): 0
Plant response rating (0 to 100), Canarygrass ([2]; 62 g ai/ha): 0
Plant response rating (0 to 100), Canarygrass ([2]; 125 g ai/ha): 0
Plant response rating, Canarygrass [2]: 0
Plant response rating (0 to 100), Cocklebur ([3]; 31 g ai/ha): 10
Plant response rating (0 to 100), Cocklebur ([3]; 62 g ai/ha): 15
Plant response rating (0 to 100), Cocklebur ([3]; 125 g ai/ha): 20
Plant response rating, Cocklebur [3]: 50
Plant response rating (0 to 100), Deadnettle ([4]; 31 g ai/ha): 0
Plant response rating (0 to 100), Deadnettle ([4]; 62 g ai/ha): 0
Plant response rating (0 to 100), Deadnettle ([4]; 125 g ai/ha): 0
Plant response rating, Deadnettle [4]: 0
Plant response rating (0 to 100), Bromegrass, Downy ([5]; 31 g ai/ha): 0
Plant response rating (0 to 100), Bromegrass, Downy ([5]; 62 g ai/ha): 0
Plant response rating (0 to 100), Bromegrass, Downy ([5]; 125 g ai/ha): 0
Plant response rating, Bromegrass, Downy [5]: 0
Plant response rating (0 to 100), Goosegrass ([6]; 31 g ai/ha): 0
Plant response rating (0 to 100), Goosegrass ([6]; 62 g ai/ha): 0
Plant response rating (0 to 100), Goosegrass ([6]; 125 g ai/ha): 0
Plant response rating, Goosegrass [6]: 0
Plant response rating (0 to 100), Foxtail, Green ([7]; 31 g ai/ha): 0
Plant response rating (0 to 100), Foxtail, Green ([7]; 62 g ai/ha): 0
Plant response rating (0 to 100), Foxtail, Green ([7]; 125 g ai/ha): 0
Plant response rating, Foxtail, Green [7]: 0
Plant response rating (0 to 100), Surinam Grass ([8]; 62 g ai/ha): 0
Plant response rating (0 to 100), Surinam Grass ([8]; 125 g ai/ha): 0
Plant response rating, Surinam Grass [8]: 5
Plant response rating (0 to 100), Windgrass ([9]; 62 g ai/ha): 0
Plant response rating (0 to 100), Windgrass ([9]; 125 g ai/ha): 0
Plant response rating, Windgrass [9]: 0
Plant response rating (0 to 100), Barley ([10]; 31 g ai/ha): 0
Plant response rating (0 to 100), Barley ([10]; 62 g ai/ha): 0
Plant response rating (0 to 100), Barley ([10]; 125 g ai/ha): 0
Plant response rating, Barley [10]: 0
Plant response rating (0 to 100), Cupgrass, Woolly ([11]; 31 g ai/ha): 0
Plant response rating (0 to 100), Cupgrass, Woolly ([11]; 62 g ai/ha): 0
Plant response rating (0 to 100), Cupgrass, Woolly ([11]; 125 g ai/ha): 5
Plant response rating, Cupgrass, Woolly [11]: 5
Plant response rating, Waterhemp_RES2 ([12]; 62 g ai/ha): 20
Plant response rating, Waterhemp_RES2 ([12]; 125 g ai/ha): 20
Plant response rating, Waterhemp_RES2 ([12]; 250 g ai/ha): 25
